Experimental data from ChEMBL document CHEMBL1201862, “PubChem BioAssay data set” (2004).
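96-well plates; 48 h exposure; 5 concentrations. Endpoints by linear interpolation between flanking doses. Not reached: highest tested concentration assigned. GI50 is the concentration that inhibits growth by half.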 Active and inactive are the calls of the source. Rule as the data show it: active = GI50 up to about 1.1 µM and inactive = higher.

Assays:
Experiment in all cases: inhibition of tumour cell growth, NCI panel, 48 h
HOP-62 = system: HOP-62
SF-539 = system: SF-539
MOLT-4 = system: MOLT-4
HOP-92 = system: HOP-92
NCI-H23 = system: NCI-H23
M19-MEL = system: M19-MEL
NCI-H522 = system: NCI-H522
KM12 = system: KM12
HOP-18 = system: HOP-18
A498 = system: A498
U-251 = system: U-251
SR = system: SR
OVCAR-3 = system: OVCAR-3
UO-31 = system: UO-31
UACC-257 = system: UACC-257
SF-295 = system: SF-295
XF498 = system: XF498
A549 = system: A549
SK-OV-3 = system: SK-OV-3
LOX IMVI = system: LOX IMVI
SNB-19 = system: SNB-19
EKVX = system: EKVX
M14 = system: M14
DMS-114 = system: DMS-114
ACHN = system: ACHN
SNB-78 = system: SNB-78
Malme-3M = system: Malme-3M
K562 = system: K562
DMS-273 = system: DMS-273
OVCAR-8 = system: OVCAR-8
SF-268 = system: SF-268
786-0 = system: 786-0
IGROV-1 = system: IGROV-1
COLO 205 = system: COLO 205
CAKI-1 = system: CAKI-1
RXF 393 = system: RXF 393
SN12C = system: SN12C
SK-MEL-5 = system: SK-MEL-5
DLD-1 = system: DLD-1
CCRF-CEM = system: CCRF-CEM
HT-29 = system: HT-29
OVCAR-5 = system: OVCAR-5
RXF 631 = system: RXF 631
SW-620 = system: SW-620
TK-10 = system: TK-10
NCI-H460 = system: NCI-H460
HL-60 = system: HL-60
OVCAR-4 = system: OVCAR-4
LXFL 529 = system: LXFL 529
SK-MEL-28 = system: SK-MEL-28
SK-MEL-2 = system: SK-MEL-2
RPMI-8226 = system: RPMI-8226
UACC-62 = system: UACC-62
HCT-116 = system: HCT-116
SNB-75 = system: SNB-75
HCT-15 = system: HCT-15
KM-20L2 = system: KM-20L2
HCC 2998 = system: HCC 2998
NCI-H226 = system: NCI-H226

O=[N+]([O-])[C@@H]1C2C=CC(C2)[C@H]1Cl (stereo not given in full) was tested, and the GI50 (HOP-62) was > 100 µM (inactive), the GI50 (SF-539) was > 100 µM (inactive) and the GI50 (MOLT-4) was > 100 µM (inactive). The GI50 (HOP-92) was > 100 µM (inactive), the GI50 (NCI-H23) was > 100 µM (inactive) and the GI50 (M19-MEL) was > 100 µM (inactive). For the same compound, the GI50 (NCI-H522) was > 100 µM (inactive), the GI50 (KM12) was > 100 µM (inactive) and the GI50 (HOP-18) was > 100 µM (inactive). For the same compound, the GI50 (A498) was > 100 µM (inactive), the GI50 (U-251) was > 100 µM (inactive) and the GI50 (SR) was > 100 µM (inactive). For the same compound, the GI50 (OVCAR-3) was > 100 µM (inactive), the GI50 (UO-31) was > 100 µM (inactive) and the GI50 (UACC-257) was > 100 µM (inactive). The GI50 (SF-295) was > 100 µM (inactive), the GI50 (XF498) was > 100 µM (inactive) and the GI50 (A549) was > 100 µM (inactive). The GI50 (SK-OV-3) was > 100 µM (inactive), the GI50 (LOX IMVI) was > 100 µM (inactive) and the GI50 (SNB-19) was > 100 µM (inactive). The GI50 (EKVX) was > 100 µM (inactive), the GI50 (M14) was > 100 µM (inactive) and the GI50 (DMS-114) was > 100 µM (inactive). For the same compound, the GI50 (ACHN) was > 100 µM (inactive), the GI50 (SNB-78) was > 100 µM (inactive) and the GI50 (Malme-3M) was > 100 µM (inactive). The GI50 (K562) was > 100 µM (inactive), the GI50 (DMS-273) was > 100 µM (inactive) and the GI50 (OVCAR-8) was > 100 µM (inactive). For the same compound, the GI50 (SF-268) was > 100 µM (inactive), the GI50 (786-0) was > 100 µM (inactive) and the GI50 (IGROV-1) was > 100 µM (inactive). The GI50 (COLO 205) was > 100 µM (inactive), the GI50 (CAKI-1) was > 100 µM (inactive) and the GI50 (RXF 393) was > 100 µM (inactive). For the same compound, the GI50 (SN12C) was > 100 µM (inactive), the GI50 (SK-MEL-5) was > 100 µM (inactive) and the GI50 (DLD-1) was > 100 µM (inactive). The GI50 (CCRF-CEM) was > 100 µM (inactive), the GI50 (HT-29) was > 100 µM (inactive) and the GI50 (OVCAR-5) was > 100 µM (inactive). For the same compound, the GI50 (RXF 631) was > 100 µM (inactive), the GI50 (SW-620) was > 100 µM (inactive) and the GI50 (TK-10) was > 100 µM (inactive). The GI50 (NCI-H460) was > 100 µM (inactive), the GI50 (HL-60) was > 100 µM (inactive) and the GI50 (OVCAR-4) was > 100 µM (inactive). The GI50 (LXFL 529) was > 100 µM (inactive), the GI50 (SK-MEL-28) was > 100 µM (inactive) and the GI50 (SK-MEL-2) was > 100 µM (inactive). The GI50 (RPMI-8226) was > 100 µM (inactive), the GI50 (UACC-62) was > 100 µM (inactive) and the GI50 (HCT-116) was > 100 µM (inactive). For the same compound, the GI50 (SNB-75) was > 100 µM (inactive) and the GI50 (HCT-15) was greater than 100 µM.
CCCCOC(=O)NC(=O)c1cn(CCCOC(=O)CCCCCCCCC(=O)OCCCn2cc(C(=O)NC(=O)OCCCC)c(=O)n(C)c2=O)c(=O)n(C)c1=O was tested, and the GI50 (HOP-62) was > 100 µM (inactive), the GI50 (SF-539) was > 100 µM (inactive) and the GI50 (MOLT-4) was > 100 µM (inactive). For the same compound, the GI50 (HOP-92) was > 100 µM (inactive), the GI50 (NCI-H23) was > 100 µM (inactive) and the GI50 (M19-MEL) was > 100 µM (inactive). The GI50 (NCI-H522) was > 100 µM (inactive), the GI50 (KM12) was > 100 µM (inactive) and the GI50 (A498) was > 100 µM (inactive). The GI50 (U-251) was > 100 µM (inactive), the GI50 (SR) was > 100 µM (inactive) and the GI50 (OVCAR-3) was > 100 µM (inactive). The GI50 (UO-31) was > 100 µM (inactive), the GI50 (UACC-257) was > 100 µM (inactive) and the GI50 (SF-295) was > 100 µM (inactive). For the same compound, the GI50 (XF498) was > 100 µM (inactive), the GI50 (A549) was > 100 µM (inactive) and the GI50 (SNB-19) was > 100 µM (inactive). For the same compound, the GI50 (EKVX) was > 100 µM (inactive), the GI50 (M14) was > 100 µM (inactive) and the GI50 (KM-20L2) was > 100 µM (inactive). For the same compound, the GI50 (DMS-114) was > 100 µM (inactive), the GI50 (ACHN) was > 100 µM (inactive) and the GI50 (HCC 2998) was > 100 µM (inactive). The GI50 (SNB-78) was > 100 µM (inactive), the GI50 (Malme-3M) was > 100 µM (inactive) and the GI50 (K562) was > 100 µM (inactive). For the same compound, the GI50 (DMS-273) was > 100 µM (inactive), the GI50 (OVCAR-8) was > 100 µM (inactive) and the GI50 (SF-268) was > 100 µM (inactive). For the same compound, the GI50 (786-0) was > 100 µM (inactive), the GI50 (IGROV-1) was > 100 µM (inactive) and the GI50 (COLO 205) was > 100 µM (inactive). For the same compound, the GI50 (CAKI-1) was > 100 µM (inactive), the GI50 (RXF 393) was > 100 µM (inactive) and the GI50 (SN12C) was > 100 µM (inactive). For the same compound, the GI50 (SK-MEL-5) was > 100 µM (inactive), the GI50 (DLD-1) was > 100 µM (inactive) and the GI50 (CCRF-CEM) was > 100 µM (inactive). For the same compound, the GI50 (HT-29) was > 100 µM (inactive), the GI50 (OVCAR-5) was > 100 µM (inactive) and the GI50 (NCI-H226) was > 100 µM (inactive). The GI50 (RXF 631) was > 100 µM (inactive), the GI50 (SW-620) was > 100 µM (inactive) and the GI50 (TK-10) was > 100 µM (inactive). For the same compound, the GI50 (NCI-H460) was > 100 µM (inactive), the GI50 (HL-60) was > 100 µM (inactive) and the GI50 (OVCAR-4) was > 100 µM (inactive). The GI50 (LXFL 529) was > 100 µM (inactive), the GI50 (SK-MEL-28) was > 100 µM (inactive) and the GI50 (SK-MEL-2) was > 100 µM (inactive). For the same compound, the GI50 (RPMI-8226) was > 100 µM (inactive), the GI50 (UACC-62) was > 100 µM (inactive) and the GI50 (HCT-116) was > 100 µM (inactive). For the same compound, the GI50 (SNB-75) was 58.1 µM (inactive) and the GI50 (HCT-15) was greater than 100 µM.
In the case of COc1nc2[nH]ccc2c(=O)n1C, the GI50 (SF-539) is reported as > 100 µM (inactive), the GI50 (MOLT-4) is reported as > 100 µM (inactive) and the GI50 (HOP-92) is reported as > 100 µM (inactive). The GI50 (NCI-H23) was > 100 µM (inactive), the GI50 (KM12) was > 100 µM (inactive) and the GI50 (HOP-18) was > 100 µM (inactive). For the same compound, the GI50 (A498) was > 100 µM (inactive), the GI50 (U-251) was > 100 µM (inactive) and the GI50 (SR) was > 100 µM (inactive). For the same compound, the GI50 (UACC-257) was > 100 µM (inactive), the GI50 (SF-295) was > 100 µM (inactive) and the GI50 (XF498) was > 100 µM (inactive). The GI50 (A549) was > 100 µM (inactive), the GI50 (LOX IMVI) was > 100 µM (inactive) and the GI50 (SNB-19) was > 100 µM (inactive). The GI50 (EKVX) was > 100 µM (inactive), the GI50 (M14) was > 100 µM (inactive) and the GI50 (DMS-114) was > 100 µM (inactive). For the same compound, the GI50 (ACHN) was > 100 µM (inactive), the GI50 (SNB-78) was > 100 µM (inactive) and the GI50 (Malme-3M) was > 100 µM (inactive). For the same compound, the GI50 (K562) was > 100 µM (inactive), the GI50 (DMS-273) was > 100 µM (inactive) and the GI50 (OVCAR-8) was > 100 µM (inactive). The GI50 (SF-268) was > 100 µM (inactive), the GI50 (IGROV-1) was > 100 µM (inactive) and the GI50 (COLO 205) was > 100 µM (inactive). The GI50 (CAKI-1) was 24.3 µM (inactive), the GI50 (RXF 393) was > 100 µM (inactive) and the GI50 (SN12C) was > 100 µM (inactive). The GI50 (SK-MEL-5) was > 100 µM (inactive), the GI50 (DLD-1) was > 100 µM (inactive) and the GI50 (CCRF-CEM) was > 100 µM (inactive). The GI50 (HT-29) was > 100 µM (inactive), the GI50 (OVCAR-5) was > 100 µM (inactive) and the GI50 (RXF 631) was > 100 µM (inactive). For the same compound, the GI50 (SW-620) was > 100 µM (inactive), the GI50 (TK-10) was > 100 µM (inactive) and the GI50 (NCI-H460) was > 100 µM (inactive). For the same compound, the GI50 (HL-60) was > 100 µM (inactive), the GI50 (OVCAR-4) was 20.5 µM (inactive) and the GI50 (LXFL 529) was > 100 µM (inactive). The GI50 (SK-MEL-28) was > 100 µM (inactive), the GI50 (SK-MEL-2) was > 100 µM (inactive) and the GI50 (RPMI-8226) was > 100 µM (inactive). The GI50 (HCT-116) was > 100 µM (inactive), the GI50 (SNB-75) was > 100 µM (inactive) and the GI50 (HCT-15) was greater than 100 µM.
